Here are results for 7 molecules from patent EP4748840A1, “IMIDAZO[1,2-A]PYRIDINE TYPE IRAK DEGRADATION AGENT AND USE THEREOF” (TAINUORUI (TIANJIN) BIOTECHNOLOGY CO., LTD, priority 2023, dated 2025).

The half-life is how long it takes for the measured level to halve. As a reminder, the microsomal CLint is the rate of metabolic loss divided by the concentration. A word on the DC50: it is the concentration at which degradation of the target reaches its halfway point. One may read the clearance as the rate of elimination divided by the concentration. Usually AUC(0-t) stands for the area under the concentration-time curve up to a stated or last time point.

Series [1] is described as follows: Liver microsomal stability assay (monkey). It is filed as in vitro ADME. The note with it: Monkey liver microsomes 0.5 mg/mL, NADPH and UDPGA, 1 µM compound. The procedure:
(§1) Liver microsomal stability assay
(§2) Microsomes were stored in a -80°C refrigerator, thawed in a 37°C water bath before use, and placed on ice after thawing. All other reagents were purchased from local suppliers.
(§3) In step 1, a reaction system was configured as follows:
(§4) In step 2, 40 µL of 10 mM NADPH solution and 40 µL of 20 mM UDPGA solution were added to the above reaction system, where the final concentrations of NADPH and UDPGA were 1 mM and 2 mM, respectively. 80 µL of ultrapure water was used as negative control to replace the NADPH and UDPGA solutions. The reaction system was pre-incubated for 10 min in a 37°C water bath. […]
(§5) All data calculations were performed using Microsoft Excel software. Peak areas were determined from extracted ion chromatograms and used for calculating the remaining percentage at each time point.
(§6) The remaining percentage was calculated by the following formula: remaining percentage (%) = (peakarearatiotime point/peakarearatio0 min) × 100. […]
(§7) An elimination rate constant (k) was determined through linear fitting of a natural logarithm of the remaining percentage of a parent drug versus time.
(§8) The half-life t1/2 was calculated from the elimination rate constant: t1/2 = 0.693/k.
(§9) The in vitro intrinsic clearance (µL/min/mg) was calculated by the following formula: invitroCLint = kV/N. [formula] […]

Series [2] can be described thus: Liver microsomal stability assay (mouse). The class given is in vitro ADME. Conditions: Mouse liver microsomes 0.5 mg/mL, NADPH and UDPGA, 1 µM compound. The procedure:
as §1, §2, §3, §4, §5, §6, §7, §8, §9
For orientation: Microsomes from liver hold many membrane-bound enzymes, among them those of drug oxidation.

The nature of series [3]: Liver microsomal stability assay (rat). It is filed as in vitro ADME. Conditions: Rat liver microsomes 0.5 mg/mL, NADPH and UDPGA, 1 µM compound. The procedure: as §1, §2, §3, §4, §5, §6, §7, §8, §9
The nature of series [4]: Liver microsomal stability assay (dog). It is filed as in vitro ADME. The note with it: Dog liver microsomes 0.5 mg/mL, NADPH and UDPGA, 1 µM compound. As to the method: as §1, §2, §3, §4, §5, §6, §7, §8, §9
The nature of series [5]: Liver microsomal stability assay (human). The class given is in vitro ADME. Conditions: Human liver microsomes 0.5 mg/mL, NADPH and UDPGA, 1 µM compound. As to the method: as §1, §2, §3, §4, §5, §6, §7, §8, §9
Another series addresses T1, IRAK4 (Homo sapiens, UniProt Q9NWZ3).
T1 construct: expressed in transfected cells; host or cells: THP1 (THP1-HIBiT-IRAK4 engineered line)
T1 sequence (Q9NWZ3 1-460): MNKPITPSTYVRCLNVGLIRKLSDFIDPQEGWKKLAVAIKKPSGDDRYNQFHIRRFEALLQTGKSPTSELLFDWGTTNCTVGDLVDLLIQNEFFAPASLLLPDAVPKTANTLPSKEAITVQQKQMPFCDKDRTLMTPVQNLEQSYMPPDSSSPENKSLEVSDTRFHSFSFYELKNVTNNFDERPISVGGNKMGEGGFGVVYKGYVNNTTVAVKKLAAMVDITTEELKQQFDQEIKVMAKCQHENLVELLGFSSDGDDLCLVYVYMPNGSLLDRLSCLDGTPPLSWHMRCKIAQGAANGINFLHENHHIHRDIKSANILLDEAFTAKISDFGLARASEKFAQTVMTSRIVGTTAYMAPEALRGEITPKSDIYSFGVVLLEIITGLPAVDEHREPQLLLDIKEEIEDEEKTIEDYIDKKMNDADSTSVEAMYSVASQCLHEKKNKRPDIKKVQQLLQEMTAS
Kind of series: HiBiT-based intracellular degradation assay of THP1-HIBiT-IRAK4 cells. It is filed as cell-based. Conditions: half-maximal degradation concentration of IRAK4 protein, 24 h incubation. As to the method:
HiBiT-based intracellular degradation assay of THP1-HIBiT-IRAK4 cells
THP1-HIBiT-IRAK4 cells were cultured in RPMI 1640 medium supplemented with 10% fetal bovine serum (FBS) and 1% penicillin-streptomycin (PS) (37°C and 5% CO2). The THP1-HIBiT-IRAK4 cells were inoculated in a 384-well plate at 5000 cells/40 µL/well. Compound solutions with different concentrations were added at 40 nL/well and incubated for 24 h at 37°C in 5% CO2. HiBiT lysis detection reagents were added to the wells, the plate was incubated for 30 min at room temperature, and luminescence values were read on Envision. [formula]
The DC50 (half-maximal degradation concentration) of each compound was obtained using XLfit software and the following nonlinear fitting equation: Y = bottom + (top−bottom)/(1+10^(∧)((LogDC50−X)×Hillslope)). [formula]
X denotes a log value of the compound concentration.
Y denotes the degradation rate.
Table 1 lists the results of DC50 values of IRAK4 protein degradation. […]

Series [6] in a line: In vivo pharmacokinetic study in mice. The note with it: male CD1 mice; for F: oral bioavailability, Oral Administration (20 mg/kg) vs Intravenous Injection (2 mg/kg); for clearance / half-life / AUC(0-t): mouse, plasma. The procedure: In vivo pharmacokinetic study
The pharmacokinetic behaviors of Example 1 and Example 15 in mice were studied using the following experimental protocol to evaluate their pharmacokinetic characteristics.
The mice had free access to food and water before the test.
Approximately 0.03 mL of venous blood was collected from the dorsal metatarsal vein of each mouse separately after 0.033 h, 0.083 h, 0.25 h, 0.5 h, 1 h, 2 h, 4 h, 8 h, and 24 h since intravenous injection. The blood was placed in an EDTA-K2 tube and centrifuged for 5 min at 4000 g and 4°C. The plasma was separated. The concentration of the compound in the plasma was determined through liquid chromatography-tandem mass spectrometry.
Approximately 0.03 mL of venous blood was collected from the dorsal metatarsal vein of each mouse separately after 0.083 h, 0.25 h, 0.5 h, 1 h, 2 h, 4 h, 8 h, and 24 h since oral administration. The blood was placed in an EDTA-K2 tube and centrifuged for 5 min at 4000 g and 4°C. The plasma was separated. The concentration of the compound in the plasma was determined through liquid chromatography-tandem mass spectrometry.

Where [7] appears, read: Intravenous Injection (2 mg/kg).

Structures are written as SMILES.

For `CC(C)(O)c1cc2nc(C3CCN(CC4CCN(c5cc6c(cc5F)C(=O)N(C5CCC(=O)NC5=O)C6=O)CC4)CC3)cn2cc1NC(=O)c1cccc(C(F)(F)F)n1` (centres unmarked) [Example 15, N-(2-(1-((1-(2-(2,6-dioxopiperidin-3-yl)-6-fluoro-1,3-dioxoisoindolin-5-yl)piperidin-4-yl)methyl)piperidin-4-yl)-7-(2-hydroxypropan-2-yl)imidazo[1,2-a]pyridin-6-yl)-6-(trifluoromethyl)pyridine-2-carboxamide], the half-life at 1 µM in series [1] was determined as 3.2 h; in series [2], 2.39 h; in series [3] it was 2.23 h; in series [4], 4.33 h; in series [5], 6.68 h. Moreover, the microsomal CLint at 1 µM in series [1] is 7.22 µL/min/mg; in series [2] it was 9.67 µL/min/mg; in series [3], 10.4 µL/min/mg; in series [4], 5.34 µL/min/mg; in series [5] it was 3.46 µL/min/mg. For the same molecule, half-maximal degradation on IRAK4 (DC50) was put at 1.62 nM. The F in series [6] was 61.7%. Besides, the clearance in series [6] (setting [7]) stood at 37.2 mL/min/kg. The half-life was 8.05 h in series [6] (setting [7]) and 8.01 h in series [6] (Oral Administration (20 mg/kg)). In addition, the AUC(0-t) in series [6] (setting [7]) worked out at 870 ng·h/mL; in series [6] (Oral Administration (20 mg/kg)), 4760 ng·h/mL.
On IRAK4, `CC(C)(O)c1cc2nc(C3CCN(CC4CCN(c5ccc6c(c5)C(=O)N(C5CCC(=O)NC5=O)C6=O)CC4)CC3)cn2cc1NC(=O)c1cccc(C(F)(F)F)n1` (centres unmarked) [Example 1] displayed a DC50 of 4.53 nM. In series [6], this molecule displayed an F of 12.1%. Besides, in series [6] (setting [7]), the clearance was 59.5 mL/min/kg, the half-life is 7.88 h and the AUC(0-t) is 550 ng·h/mL. Further, in series [6] (Oral Administration (20 mg/kg)), the half-life was 6.81 h and the AUC(0-t) amounted to 626 ng·h/mL.
On IRAK4, `CC(C)(O)c1cc2nc(C3CCN(CCN4CCN(c5cc6c(cc5F)C(=O)N(C5CCC(=O)NC5=O)C6=O)CC4)CC3)cn2cc1NC(=O)c1cccc(C(F)(F)F)n1` (centres unmarked) [Example 22, N-(2-(1-(2-(4-(2-(2,6-dioxopiperidin-3-yl)-6-fluoro-1,3-dioxoisoindolin-5-yl)piperazin-1-yl)ethyl)piperidin-4-yl)-7-(2-hydroxypropan-2-yl)imidazo[1,2-a]pyridin-6-yl)-6-(trifluoromethyl)pyridine-2-carboxamide] displayed a DC50 of 4.76 nM.
Same read-out and setting: the figure for `COc1cc2nc(C3CCN(CCN4CCN(c5ccc6c(c5)CN(C5CCC(=O)NC5=O)C6=O)CC4)CC3)cn2cc1NC(=O)c1cccc(C(F)(F)F)n1` (centres unmarked) [Example 12, N-(2-(1-(2-(4-(2-(2,6-dioxopiperidin-3-yl)-1-oxoisoindolin-5-yl)piperazin-1-yl)ethyl)piperidin-4-yl)-7-methoxyimidazo[1,2-a]pyridin-6-yl)-6-(trifluoromethyl)pyridine-2-carboxamide] is 1.05 nM; for `CC(C)(O)c1cc2nc(C3CCN(CC(=O)N4CCC5(CC4)CN(c4ccc6c(c4)C(=O)N(C4CCC(=O)NC4=O)C6=O)C5)CC3)cn2cc1NC(=O)c1cccc(C(F)(F)F)n1` (centres unmarked) [Example 5, N-(2-(1-(2-(2-(2-(2,6-dioxopiperidin-3-yl)-1,3-dioxoisoindolin-5-yl)-2,7-diazaspiro[3.5]nonan-7-yl)-2-oxoethyl)piperidin-4-yl)-7-(2-hydroxypropan-2-yl)imidazo[1,2-a]pyridin-6-yl)-6-(trifluoromethyl)pyridine-2-carboxamide] it is 3.69 nM; for `CC(C)(O)c1cc2nc(C3CCN(CCCN4CCN(c5ccc6c(c5)C(=O)N(C5CCC(=O)NC5=O)C6=O)CC4)CC3)cn2cc1NC(=O)c1cccc(C(F)(F)F)n1` (centres unmarked) [Example 19, N-(2-(1-(3-(4-(2-(2,6-dioxopiperidin-3-yl)-1,3-dioxoisoindolin-5-yl)piperazin-1-yl)propyl)piperidin-4-yl)-7-(2-hydroxypropan-2-yl)imidazo[1,2-a]pyridin-6-yl)-6-(trifluoromethyl)pyridine-2-carboxamide] it is 1.95 nM.
The molecule `CC(C)(O)c1cc2nc(C3CCN(CC4CCN(c5cc6c(cc5F)C(=O)N(C5CCC(=O)NC5=O)C6)CC4)CC3)cn2cc1NC(=O)c1cccc(C(F)(F)F)n1` (centres unmarked) [Example 23, N-(2-(1-((1-(2-(2,6-dioxopiperidin-3-yl)-6-fluoro-1-oxoisoindolin-5-yl)piperidin-4-yl)methyl)piperidin-4-yl)-7-(2-hydroxypropan-2-yl)imidazo[1,2-a]pyridin-6-yl)-6-(trifluoromethyl) pyridine-2-carboxamide] registered a DC50 on IRAK4 of 0.95 nM.
